In one test the target is Cdk9/CyclinT1 (Homo sapiens, UniProt P50750). The experiment in a line: In vitro dose-response kinase inhibition assay. Format: biochemical. The note with it: 30 min, ATP 30 μM. As to the method: (§1) In vitro phosphorylation reactions were conducted as dose-response kinase inhibition assays with three highly homologous CDKs, namely, Cdk2/CyclinE (1.5 nM), CDK5/p25 (0.35 nM), and Cdk9/CyclinT1 (9 nM). Briefly, the abovementioned kinases were incubated with ATP (30 μM), the corresponding substrate (20 μM), and an increasing concentration of 25–106 (0–5 μM) for 30 min.

The target in the next test is CDK5/p25 (Homo sapiens, UniProt Q00535). The experiment in a line: In vitro dose-response kinase inhibition assay. Format: biochemical. As to the method:
as §1

The next test deals with Cdk2/CyclinE (Homo sapiens, UniProt P24941). The experiment in a line: In vitro dose-response kinase inhibition assay. Type of test: biochemical. As to the method:
as §1

The subject of another test is C57BL/6 mice. The experiment in a line: Open-field test. Type of test: in vivo, mouse. The note with it: 50 mg/kg. As to the method: The OFT was performed as described ([Chakraborti et al., 2021]). With the adaptation duration of the test being 1 h for each mouse, briefly, the mice were placed in a square box (40 cm × 40 cm) and allowed to freely explore. The center square portion of the maze was defined as the “open area.” Video tracking using EthoVision 16 software was used to track animal movement throughout the box and stereotypic and locomotive behaviors such as hopping, sniffing, and rearing. Total distance traveled, entries into the center of the maze, and duration in the center were tracked and analyzed in EthoVision.
To establish a functional effect of pharmacological Cdk5 inhibition in the brain, we tested mouse performance in two behavioral paradigms previously shown to be altered in Cdk5 knockout mice: the open-field maze and the tail suspension test ([Plattner et al., 2015]). The open-field maze was used to measure locomotion and anxiety-like behavior ([Cacace et al., 2011]; [Seibenhener and Wooten, 2015]). Mice were injected with either vehicle or 50 mg/kg of 25–106 and allowed to freely explore an open-field maze for 1 h with locomotor activity being tracked (Figure 7).

Chain of CDK5/p25 (Q00535 whole entry, species assumed): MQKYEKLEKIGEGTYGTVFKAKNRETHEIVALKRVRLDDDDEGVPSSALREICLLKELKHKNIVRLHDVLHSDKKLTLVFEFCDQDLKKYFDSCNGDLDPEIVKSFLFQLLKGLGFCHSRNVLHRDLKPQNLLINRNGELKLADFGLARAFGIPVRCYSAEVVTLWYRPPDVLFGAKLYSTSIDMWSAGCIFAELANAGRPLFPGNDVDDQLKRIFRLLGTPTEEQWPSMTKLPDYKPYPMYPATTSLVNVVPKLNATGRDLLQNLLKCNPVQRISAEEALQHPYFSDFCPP
Chain of CDK5/p25 (Q15078 99-307 partner limits assumed, species assumed): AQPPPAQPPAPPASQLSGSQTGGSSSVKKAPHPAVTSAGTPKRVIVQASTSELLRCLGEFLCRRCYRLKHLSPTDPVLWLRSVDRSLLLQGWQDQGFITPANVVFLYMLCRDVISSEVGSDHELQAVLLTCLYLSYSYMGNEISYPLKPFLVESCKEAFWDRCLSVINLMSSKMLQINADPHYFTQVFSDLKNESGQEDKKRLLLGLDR
Chain of Cdk9/CyclinT1 (P50750 whole entry, species assumed): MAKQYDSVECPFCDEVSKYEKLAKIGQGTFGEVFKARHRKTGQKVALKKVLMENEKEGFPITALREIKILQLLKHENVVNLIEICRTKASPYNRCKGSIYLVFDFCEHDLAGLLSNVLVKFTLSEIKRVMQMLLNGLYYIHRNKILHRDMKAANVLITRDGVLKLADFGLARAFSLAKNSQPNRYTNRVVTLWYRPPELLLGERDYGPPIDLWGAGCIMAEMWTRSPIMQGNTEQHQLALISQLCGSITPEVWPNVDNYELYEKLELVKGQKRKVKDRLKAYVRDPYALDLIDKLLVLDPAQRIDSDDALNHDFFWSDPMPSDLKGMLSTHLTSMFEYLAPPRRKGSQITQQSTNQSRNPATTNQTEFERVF
Chain of Cdk9/CyclinT1 (O60563 whole entry partner, species assumed): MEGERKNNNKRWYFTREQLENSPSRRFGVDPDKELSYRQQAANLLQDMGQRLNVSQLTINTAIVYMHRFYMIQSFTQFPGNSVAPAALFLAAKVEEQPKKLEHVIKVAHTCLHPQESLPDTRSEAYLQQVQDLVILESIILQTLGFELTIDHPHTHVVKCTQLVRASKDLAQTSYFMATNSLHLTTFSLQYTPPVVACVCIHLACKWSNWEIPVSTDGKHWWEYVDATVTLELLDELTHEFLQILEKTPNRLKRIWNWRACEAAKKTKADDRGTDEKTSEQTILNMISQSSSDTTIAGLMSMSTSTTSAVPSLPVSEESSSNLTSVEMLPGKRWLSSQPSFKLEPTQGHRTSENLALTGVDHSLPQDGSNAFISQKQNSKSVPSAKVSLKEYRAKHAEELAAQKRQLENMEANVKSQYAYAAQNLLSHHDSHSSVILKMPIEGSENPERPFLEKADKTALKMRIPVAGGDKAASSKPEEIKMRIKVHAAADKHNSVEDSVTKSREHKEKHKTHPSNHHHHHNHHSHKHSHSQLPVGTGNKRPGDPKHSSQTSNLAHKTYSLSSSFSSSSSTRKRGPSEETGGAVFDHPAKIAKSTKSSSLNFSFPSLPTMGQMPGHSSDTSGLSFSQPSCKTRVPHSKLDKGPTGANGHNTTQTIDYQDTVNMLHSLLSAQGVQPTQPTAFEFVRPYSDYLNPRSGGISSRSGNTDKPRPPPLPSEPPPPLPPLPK

In the case of `COc1cc(CC(=O)Nc2cc(C3CCC3)[nH]n2)cc(OC)c1OC` [25–106, N-(5-cyclobutyl-1H-pyrazol-3-yl)-2-(3,4,5-trimethoxyphenyl)acetamide], the IC50 amounted to 5710 nM at Cdk9/CyclinT1 (read-out: IC50 CDK9/Cyclin T1); 178 nM at CDK5/p25 (30 min, ATP 30 μM, read-out: IC50 CDK5/P35); 149 nM on Cdk2/CyclinE (30 min, ATP 30 μM, read-out: IC50 CDK2/Cyclin E). The Ki on Cdk9/CyclinT1 (read-out: Ki CDK9/Cyclin T1) was 3430 nM; at CDK5/p25 (30 min, ATP 30 μM, read-out: Ki CDK5/P35), 107 nM; at Cdk2/CyclinE (30 min, ATP 30 μM, read-out: Ki CDK2/Cyclin E), 89 nM. In addition, the “selectivity for Cdk5 than Cdk9” value at CDK5/p25 (in vitro kinase assay) was “greater than 30 fold”. At Cdk2/CyclinE (in vitro kinase assay), the “selectivity for Cdk2 than Cdk9” value is “greater than 30 fold”. Further, in the test on C57BL/6 mice (1 h after injection, 1 h test), the “duration of time spent in the open portion of the maze vs. vehicle” value is reported as “longer duration of time”. Also, in the test with C57BL/6 mice (1 h after injection, 1 h test), the “entries into the open portion of the maze vs. vehicle” value is listed as “increased number of entries”. In addition, in the test with C57BL/6 mice (open-field testing), the “hopping bouts vs. vehicle” value is “increased hopping bouts”. The “rearing behaviors vs. vehicle” value with C57BL/6 mice (open-field testing) is “increased rearing behaviors”. Besides, in the test with C57BL/6 mice (open-field testing), the “time sniffing vs. vehicle” value is reported as “increased time sniffing”.

These data come from PMC9134315, “Systemic Administration of a Brain Permeable Cdk5 Inhibitor Alters Neurobehavior” (Frontiers in Pharmacology, 2022).
